Results reported in patent US12156883B2, “Bisphosphocin gel formulations and uses thereof” (Lakewood Amedex, Inc., priority 2017, dated 2024).
Entries after “also recorded” stand apart in the source; their conditions may differ.

Test system: methicillin resistant Staphylococcus aureus strain USA300 (TPPS 1056)
Experiment: Staphylococcus aureus-induced murine dermal infection model
Assay type: in vivo
Conditions: female SKH1 mice, topical 10% Nu-3 fatty alcohol-based gel pH 1.5, 4 h after challenge
Procedure: Female SKH1 mice ordered from Charles River Laboratories are acclimated to housing conditions and handled in accordance with Animal Use Protocol (AUP) number TP-18. The animals are acclimated for a minimum of 24 hours prior to bacterial challenge and are 6-8 weeks old on Day 0 of the experiment. Only animals deemed healthy are included in this study. Animals are fed irradiated Teklad Global Rodent Diet 2918 and water ad libitum. Mice are housed in static cages with irradiated Teklad ⅛″ corn cob bedding 7902 inside bioBubble® Clean Rooms that provide H.E.P.A. filtered air into the bubble environment at 100 complete air changes per hour. All treatments and infectious challenges are carried out in a BSL2 surgical suite. The environment is controlled to a temperature range of 74°±4° F. and a humidity range of 30-70%. […]
Immediately following tape stripping, each animal receives a topical application with approximately 6.0 log10 CFU per mouse in a volume of 100 μL spread in an area approximately 0.75″×0.75″. […] The final CFU count from the challenge suspension determined that 5.6 log10 CFU per mouse is delivered. […]
Following euthanasia, a section of excised skin approximately 0.5″×0.5″ is aseptically removed from the infected/treated area and transferred to vials with 2.0 mL of sterile water and weighed. […] Tissue pH is measured using litmus paper and recorded. […]

CCCCOP(=O)(O)OC[C@H]1OC(n2cc(C)c(=O)[nH]c2=O)C[C@@H]1OP(=O)(O)OCCCC (stereo partly drawn) [Nu-3, (2R,3S)-2-((butoxy(hydroxy)phosphoryl)oxy)methyl)-5-(5-methyl-2,4-dioxo-3,4-dihydropyrimidin-1(2H)-yl)tetrahydrofuran-2-yl) butyl hydrogen phosphate]
CFU burden compared to untreated control animals (5 and 12 hours post-challenge): significant decreases; also recorded: significantly decreases
CFU burden compared to vehicle-treated animals (all harvest time points): significant decreases; also recorded: significantly decreases
